# Assay results as given in PubChem BioAssay (NCI).
#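 How tested: cells in 96-well plates exposed to compound for 48 hours at five concentrations. GI50 is the concentration that inhibits growth by half. TGI: concentration producing complete growth inhibition.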
# How the values were obtained:
# Test in all cases: NCI tumour cell line growth inhibition, 48 h
# 786-0 renal = test system: 786-0 renal
# A498 renal = test system: A498 renal
# A549 NSCLC = test system: A549 NSCLC
# ACHN renal = test system: ACHN renal
# BT-549 breast = test system: BT-549 breast
# CAKI-1 renal = test system: CAKI-1 renal
# CCRF-CEM leukemia = test system: CCRF-CEM leukemia
# COLO 205 colon = test system: COLO 205 colon
# DU-145 prostate = test system: DU-145 prostate
# EKVX NSCLC = test system: EKVX NSCLC
# HCT-116 colon = test system: HCT-116 colon
# HCT-15 colon = test system: HCT-15 colon
# HL-60(TB) leukemia = test system: HL-60(TB) leukemia
# HOP-62 NSCLC = test system: HOP-62 NSCLC
# HOP-92 NSCLC = test system: HOP-92 NSCLC
# HS 578T breast = test system: HS 578T breast
# HT29 colon = test system: HT29 colon
# IGROV1 ovarian = test system: IGROV1 ovarian
# K-562 leukemia = test system: K-562 leukemia
# KM12 colon = test system: KM12 colon
# LOX IMVI melanoma = test system: LOX IMVI melanoma
# M14 melanoma = test system: M14 melanoma
# MALME-3M melanoma = test system: MALME-3M melanoma
# MCF7 breast = test system: MCF7 breast
# MDA-MB-231 breast = test system: MDA-MB-231 breast
# MDA-MB-435 = test system: MDA-MB-435
# MOLT-4 leukemia = test system: MOLT-4 leukemia
# NCI-H226 lung = test system: NCI-H226 lung
# NCI-H23 lung = test system: NCI-H23 lung
structure (smiles),measurement,setting,value
O=c1oc2c3ccc4cnccc4c3[nH]c2c2ccccc12,GI50,786-0 renal,4.47 µM
same,TGI,786-0 renal,17.6 µM
same,GI50,A498 renal,95.5 µM
same,TGI,A498 renal,> 100 µM
same,GI50,A549 NSCLC,3.96 µM
same,TGI,A549 NSCLC,> 100 µM
same,GI50,ACHN renal,31.5 µM
same,TGI,ACHN renal,> 100 µM
same,GI50,BT-549 breast,14.2 µM
same,TGI,BT-549 breast,29.2 µM
same,GI50,CAKI-1 renal,47 µM
same,TGI,CAKI-1 renal,> 100 µM
same,GI50,CCRF-CEM leukemia,3.94 µM
same,TGI,CCRF-CEM leukemia,11.6 µM
same,GI50,COLO 205 colon,4.24 µM
same,TGI,COLO 205 colon,17.4 µM
same,GI50,DU-145 prostate,12.3 µM
same,TGI,DU-145 prostate,32.9 µM
same,GI50,EKVX NSCLC,76.5 µM
same,TGI,EKVX NSCLC,> 100 µM
same,GI50,HCT-116 colon,1.58 µM
same,TGI,HCT-116 colon,2.99 µM
same,GI50,HCT-15 colon,30.7 µM
same,TGI,HCT-15 colon,> 100 µM
same,GI50,HL-60(TB) leukemia,17.3 µM
same,TGI,HL-60(TB) leukemia,> 100 µM
same,GI50,HOP-62 NSCLC,3 µM
same,TGI,HOP-62 NSCLC,8.3 µM
same,GI50,HOP-92 NSCLC,10.2 µM
same,TGI,HOP-92 NSCLC,35 µM
same,GI50,HS 578T breast,21.3 µM
same,TGI,HS 578T breast,> 100 µM
same,GI50,HT29 colon,10.5 µM
same,TGI,HT29 colon,37.2 µM
same,GI50,IGROV1 ovarian,12.7 µM
same,TGI,IGROV1 ovarian,> 100 µM
same,GI50,K-562 leukemia,27.7 µM
same,TGI,K-562 leukemia,> 100 µM
same,GI50,KM12 colon,13.1 µM
same,TGI,KM12 colon,> 100 µM
same,GI50,LOX IMVI melanoma,12.1 µM
same,TGI,LOX IMVI melanoma,28.2 µM
same,GI50,M14 melanoma,13.4 µM
same,TGI,M14 melanoma,26.6 µM
same,GI50,MALME-3M melanoma,18.9 µM
same,TGI,MALME-3M melanoma,45.1 µM
same,GI50,MCF7 breast,2.24 µM
same,TGI,MCF7 breast,6.17 µM
same,GI50,MDA-MB-231 breast,16.9 µM
same,TGI,MDA-MB-231 breast,38.5 µM
same,GI50,MDA-MB-435,18.1 µM
same,TGI,MDA-MB-435,34.2 µM
same,GI50,MOLT-4 leukemia,4.83 µM
same,TGI,MOLT-4 leukemia,25.4 µM
same,GI50,NCI-H226 lung,26.6 µM
same,TGI,NCI-H226 lung,72.6 µM
same,GI50,NCI-H23 lung,23.3 µM
